Data published in publication PMC6327040, “A novel scaffold for EGFR inhibition: Introducing N-(3-(3-phenylureido)quinoxalin-6-yl) acrylamide derivatives” (Scientific Reports, 2019).
One block for each compound: values may come before it.

Key:
EGFRL858R = EGFRL858R (Homo sapiens, UniProt P00533, L858R); test: HTRF KinEASE-TK biochemical assay (TR-FRET), EGFR-L858R
Procedure: (§2) An artificial substrate peptide (TK-substrate from Cisbio) was phosphorylated by EGFR. After completion of the reaction (reaction times: 25 min for wild-type, 15 min for L858R, 20 min for T790M/L858R), the reaction was stopped by addition of a buffer containing EDTA as well as, an anti-phosphotyrosine antibody labeled with europium cryptate and streptavidin labeled with the fluorophore XL665. FRET between europium cryptate and XL665 was measured after an additional hour of incubation to quantify the phosphorylation of the substrate peptide. […] Kinase and inhibitor were preincubated for 30 min (EGFR-wt) and 1 h (EGFR-L858R and EGFR-L858R/T790M) before the reaction was started by addition of ATP and substrate peptide. An EnVision multimode plate reader (Perkin Elmer) was used to measure the fluorescence of the samples at 620 nm (Eu-labeled antibody) and 665 nm (XL665 labeled streptavidin) 50 μs after excitation at 320 nm. The quotient of both intensities for reactions made with eight different inhibitor concentrations was then analyzed using the Quattro Software Suite for IC50-determination. Each reaction was performed in duplicate, and at least three independent determinations of each IC50 were made.

EGFRwt = EGFRwt (Homo sapiens, UniProt P00533); test: HTRF KinEASE-TK biochemical assay (TR-FRET), EGFRwt
Procedure: as §2

EGFRL858R/T790M = EGFRL858R/T790M (Homo sapiens, UniProt P00533, L858R/T790M); test: HTRF KinEASE-TK biochemical assay (TR-FRET), EGFR-L858R/T790M; details: for inhibitory activity on EGFRL858R/T790M (in words): enzymatic in vitro determination
Procedure: as §2

[1] = tested on: patient-derived tumor cell panel; test: Patient-derived tumor cell panel screening (Oncotest); type: cell-based
Procedure: (§1) Based on this premise, the inhibitory activity of compounds 7a-m towards a patient-derived tumor cell panel[49] was evaluated, using a single screening concentration of 10 μM. […] In fact, it is worth mentioning that, although the data observed in a cellular assay have no direct correlation to EGFR enzymatic tests, this phenomenon is not unusual and is related to the nature of the assays itself. In enzymatic assays there is no influence of membrane permeability issues, while in cell viability assays compounds must penetrate the cell membrane and resist the cellular environment for long enough for the ligand-receptor interaction to occur and to trigger the biological activity.

MEXF 1737l = test: PD tumor cell line growth inhibition; type: cell-based; details: Melanoma, read-out: % inhibition (cellular growth inhibition related to negative control)
Procedure: as §1

CXF Colo205 = test: PD tumor cell line growth inhibition; type: cell-based; details: Homo sapiens, COLO 205, Colon, read-out: % inhibition (cellular growth inhibition related to negative control)
Procedure: as §1

GXF 251L = test: PD tumor cell line growth inhibition; type: cell-based; details: Stomach, EGFRdel-exon19 expressed, read-out: % inhibition (cellular growth inhibition related to negative control)
Procedure: as §1

RXF 786-O = test: PD tumor cell line growth inhibition; type: cell-based; details: Homo sapiens, 786-0, Kidney, read-out: % inhibition (cellular growth inhibition related to negative control)
Procedure: as §1

SXF1301L = test: PD tumor cell line growth inhibition; type: cell-based; details: Sarcoma, read-out: % inhibition (cellular growth inhibition related to negative control)
Procedure: as §1

CNXF A172 = test: PD tumor cell line growth inhibition; type: cell-based; details: Homo sapiens, A 172, Glioblastoma, read-out: % inhibition (cellular growth inhibition related to negative control)
Procedure: as §1

LXFA 629L = test: PD tumor cell line growth inhibition; type: cell-based; details: Lung, read-out: % inhibition (cellular growth inhibition related to negative control)
Procedure: as §1

LIXF 575L = test: PD tumor cell line growth inhibition; type: cell-based; details: Liver, read-out: % inhibition (cellular growth inhibition related to negative control)
Procedure: as §1

LXFA PC9 = test: PD tumor cell line growth inhibition; type: cell-based; details: Lung, EGFRdel-exon19 expressed, read-out: % inhibition (cellular growth inhibition related to negative control)
Procedure: as §1

CXF RKO = test: PD tumor cell line growth inhibition; type: cell-based; details: Colon, read-out: % inhibition (cellular growth inhibition related to negative control)
Procedure: as §1

MAXF MCF7 = test: PD tumor cell line growth inhibition; type: cell-based; details: Homo sapiens, Breast, read-out: % inhibition (cellular growth inhibition related to negative control)
Procedure: as §1

CXF SW620 = test: PD tumor cell line growth inhibition; type: cell-based; details: Homo sapiens, SW-620, Colon, read-out: % inhibition (cellular growth inhibition related to negative control)
Procedure: as §1

UXF 1138L = test: PD tumor cell line growth inhibition; type: cell-based; details: Uterus, read-out: % inhibition (cellular growth inhibition related to negative control)
Procedure: as §1

LXFA NCI-H1975 = test: PD tumor cell line growth inhibition; type: cell-based; details: Homo sapiens, Lung, read-out: % inhibition (cellular growth inhibition related to negative control)
Procedure: as §1

GXA MKN45 = test: PD tumor cell line growth inhibition; type: cell-based; details: Homo sapiens, MKN-45, Stomach, read-out: % inhibition (cellular growth inhibition related to negative control)
Procedure: as §1

PRXF DU145 = test: PD tumor cell line growth inhibition; type: cell-based; details: Homo sapiens, DU-145, Prostate, read-out: % inhibition (cellular growth inhibition related to negative control)
Procedure: as §1

MEXF 1539L = test: PD tumor cell line growth inhibition; type: cell-based; details: Melanoma, read-out: % inhibition (cellular growth inhibition related to negative control)
Procedure: as §1

MAXF 401NL = test: PD tumor cell line growth inhibition; type: cell-based; details: Breast, read-out: % inhibition (cellular growth inhibition related to negative control)
Procedure: as §1

LXFL 529L = test: PD tumor cell line growth inhibition; type: cell-based; details: Lung, EGFR overexpressed, read-out: % inhibition (cellular growth inhibition related to negative control)
Procedure: as §1

LXFL H460 = test: PD tumor cell line growth inhibition; type: cell-based; details: Homo sapiens, NCI-H460, Lung, read-out: % inhibition (cellular growth inhibition related to negative control)
Procedure: as §1

PAXF 1657l = test: PD tumor cell line growth inhibition; type: cell-based; details: Pancreas, read-out: % inhibition (cellular growth inhibition related to negative control)
Procedure: as §1

BXF 1218L = test: PD tumor cell line growth inhibition; type: cell-based; details: Bladder, read-out: % inhibition (cellular growth inhibition related to negative control)
Procedure: as §1

MAXF MDA231 = test: PD tumor cell line growth inhibition; type: cell-based; details: Homo sapiens, MDA-MB-231, Breast, read-out: % inhibition (cellular growth inhibition related to negative control)
Procedure: as §1

OVXF 899L = test: PD tumor cell line growth inhibition; type: cell-based; details: Ovary, read-out: % inhibition (cellular growth inhibition related to negative control)
Procedure: as §1

MEXF 276L = test: PD tumor cell line growth inhibition; type: cell-based; details: Homo sapiens, MEXF276L, Melanoma, read-out: % inhibition (cellular growth inhibition related to negative control)
Procedure: as §1

CXF DIFI = test: PD tumor cell line growth inhibition; type: cell-based; details: Homo sapiens, Colon, EGFRdel-exon19 expressed, read-out: % inhibition (cellular growth inhibition related to negative control)
Procedure: as §1

BXF T24 = test: PD tumor cell line growth inhibition; type: cell-based; details: Bladder, read-out: % inhibition (cellular growth inhibition related to negative control)
Procedure: as §1

RXF 486L = test: PD tumor cell line growth inhibition; type: cell-based; details: Kidney, read-out: % inhibition (cellular growth inhibition related to negative control)
Procedure: as §1

CXF HCT116 = test: PD tumor cell line growth inhibition; type: cell-based; details: Homo sapiens, HCT-116, Colon, read-out: % inhibition (cellular growth inhibition related to negative control)
Procedure: as §1

PAXF 546L = test: PD tumor cell line growth inhibition; type: cell-based; details: Pancreas, read-out: % inhibition (cellular growth inhibition related to negative control)
Procedure: as §1

[2] = enzymatic in vitro determination

EGFRwt, sequence (P00533 25-1210): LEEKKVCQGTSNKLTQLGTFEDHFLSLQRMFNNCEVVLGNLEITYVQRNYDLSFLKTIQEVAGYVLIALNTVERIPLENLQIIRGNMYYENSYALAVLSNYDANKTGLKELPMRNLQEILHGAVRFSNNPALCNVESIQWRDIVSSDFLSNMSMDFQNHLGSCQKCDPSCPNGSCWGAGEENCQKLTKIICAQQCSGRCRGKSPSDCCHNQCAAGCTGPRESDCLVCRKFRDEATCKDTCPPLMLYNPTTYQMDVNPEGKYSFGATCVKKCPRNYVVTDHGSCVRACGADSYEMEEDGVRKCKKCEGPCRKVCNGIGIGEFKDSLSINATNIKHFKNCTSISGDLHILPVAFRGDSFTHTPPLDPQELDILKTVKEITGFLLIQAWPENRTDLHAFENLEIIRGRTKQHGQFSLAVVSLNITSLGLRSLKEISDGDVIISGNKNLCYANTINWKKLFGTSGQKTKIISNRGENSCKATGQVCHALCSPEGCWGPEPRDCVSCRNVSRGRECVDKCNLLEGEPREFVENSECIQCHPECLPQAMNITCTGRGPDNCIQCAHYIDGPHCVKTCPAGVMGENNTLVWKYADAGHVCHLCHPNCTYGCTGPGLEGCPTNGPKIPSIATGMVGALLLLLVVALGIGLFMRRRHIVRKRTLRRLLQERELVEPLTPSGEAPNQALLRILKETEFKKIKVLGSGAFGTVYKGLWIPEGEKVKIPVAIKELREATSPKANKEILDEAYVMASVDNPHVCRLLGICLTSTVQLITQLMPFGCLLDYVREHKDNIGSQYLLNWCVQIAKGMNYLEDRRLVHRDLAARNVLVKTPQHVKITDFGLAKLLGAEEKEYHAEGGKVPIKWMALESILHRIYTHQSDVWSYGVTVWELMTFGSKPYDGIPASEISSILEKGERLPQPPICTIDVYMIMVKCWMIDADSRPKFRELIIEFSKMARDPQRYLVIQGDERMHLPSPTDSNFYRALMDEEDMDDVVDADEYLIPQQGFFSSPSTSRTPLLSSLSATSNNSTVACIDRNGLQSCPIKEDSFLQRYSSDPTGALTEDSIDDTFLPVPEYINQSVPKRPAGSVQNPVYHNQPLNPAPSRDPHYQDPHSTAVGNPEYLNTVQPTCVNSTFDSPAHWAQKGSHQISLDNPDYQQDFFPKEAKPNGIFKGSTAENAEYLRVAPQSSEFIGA
EGFRL858R, sequence (P00533 25-1210 L858R): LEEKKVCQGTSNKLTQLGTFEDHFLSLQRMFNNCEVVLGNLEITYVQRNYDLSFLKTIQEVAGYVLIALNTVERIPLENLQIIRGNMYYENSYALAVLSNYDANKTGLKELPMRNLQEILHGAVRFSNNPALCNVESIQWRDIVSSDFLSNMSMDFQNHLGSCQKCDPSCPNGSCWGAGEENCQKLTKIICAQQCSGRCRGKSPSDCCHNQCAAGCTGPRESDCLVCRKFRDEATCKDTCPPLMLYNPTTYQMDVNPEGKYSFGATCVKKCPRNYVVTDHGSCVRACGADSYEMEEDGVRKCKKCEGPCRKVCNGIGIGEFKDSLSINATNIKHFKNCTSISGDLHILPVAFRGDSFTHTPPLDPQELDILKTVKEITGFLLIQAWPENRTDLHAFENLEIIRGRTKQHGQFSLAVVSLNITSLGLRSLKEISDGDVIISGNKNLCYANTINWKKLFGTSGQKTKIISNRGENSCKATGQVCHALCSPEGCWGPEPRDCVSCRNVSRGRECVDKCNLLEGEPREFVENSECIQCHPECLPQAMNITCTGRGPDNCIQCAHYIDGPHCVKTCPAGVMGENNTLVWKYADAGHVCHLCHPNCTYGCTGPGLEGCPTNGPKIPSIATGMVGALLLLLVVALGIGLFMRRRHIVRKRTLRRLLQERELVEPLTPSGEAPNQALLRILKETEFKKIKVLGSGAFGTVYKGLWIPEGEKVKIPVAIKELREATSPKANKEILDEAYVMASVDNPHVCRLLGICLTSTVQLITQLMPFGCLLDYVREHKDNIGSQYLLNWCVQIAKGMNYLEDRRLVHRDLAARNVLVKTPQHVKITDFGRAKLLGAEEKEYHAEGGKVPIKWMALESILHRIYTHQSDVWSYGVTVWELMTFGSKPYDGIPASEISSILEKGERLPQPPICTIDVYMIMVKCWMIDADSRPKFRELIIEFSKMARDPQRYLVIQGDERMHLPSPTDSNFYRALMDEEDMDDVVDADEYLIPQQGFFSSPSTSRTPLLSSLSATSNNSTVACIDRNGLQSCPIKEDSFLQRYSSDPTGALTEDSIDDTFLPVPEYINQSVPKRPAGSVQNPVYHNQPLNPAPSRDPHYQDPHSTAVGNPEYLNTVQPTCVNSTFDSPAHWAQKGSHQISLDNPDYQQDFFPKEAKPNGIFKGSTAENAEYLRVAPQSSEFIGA
EGFRL858R/T790M, sequence (P00533 25-1210 T790M/L858R): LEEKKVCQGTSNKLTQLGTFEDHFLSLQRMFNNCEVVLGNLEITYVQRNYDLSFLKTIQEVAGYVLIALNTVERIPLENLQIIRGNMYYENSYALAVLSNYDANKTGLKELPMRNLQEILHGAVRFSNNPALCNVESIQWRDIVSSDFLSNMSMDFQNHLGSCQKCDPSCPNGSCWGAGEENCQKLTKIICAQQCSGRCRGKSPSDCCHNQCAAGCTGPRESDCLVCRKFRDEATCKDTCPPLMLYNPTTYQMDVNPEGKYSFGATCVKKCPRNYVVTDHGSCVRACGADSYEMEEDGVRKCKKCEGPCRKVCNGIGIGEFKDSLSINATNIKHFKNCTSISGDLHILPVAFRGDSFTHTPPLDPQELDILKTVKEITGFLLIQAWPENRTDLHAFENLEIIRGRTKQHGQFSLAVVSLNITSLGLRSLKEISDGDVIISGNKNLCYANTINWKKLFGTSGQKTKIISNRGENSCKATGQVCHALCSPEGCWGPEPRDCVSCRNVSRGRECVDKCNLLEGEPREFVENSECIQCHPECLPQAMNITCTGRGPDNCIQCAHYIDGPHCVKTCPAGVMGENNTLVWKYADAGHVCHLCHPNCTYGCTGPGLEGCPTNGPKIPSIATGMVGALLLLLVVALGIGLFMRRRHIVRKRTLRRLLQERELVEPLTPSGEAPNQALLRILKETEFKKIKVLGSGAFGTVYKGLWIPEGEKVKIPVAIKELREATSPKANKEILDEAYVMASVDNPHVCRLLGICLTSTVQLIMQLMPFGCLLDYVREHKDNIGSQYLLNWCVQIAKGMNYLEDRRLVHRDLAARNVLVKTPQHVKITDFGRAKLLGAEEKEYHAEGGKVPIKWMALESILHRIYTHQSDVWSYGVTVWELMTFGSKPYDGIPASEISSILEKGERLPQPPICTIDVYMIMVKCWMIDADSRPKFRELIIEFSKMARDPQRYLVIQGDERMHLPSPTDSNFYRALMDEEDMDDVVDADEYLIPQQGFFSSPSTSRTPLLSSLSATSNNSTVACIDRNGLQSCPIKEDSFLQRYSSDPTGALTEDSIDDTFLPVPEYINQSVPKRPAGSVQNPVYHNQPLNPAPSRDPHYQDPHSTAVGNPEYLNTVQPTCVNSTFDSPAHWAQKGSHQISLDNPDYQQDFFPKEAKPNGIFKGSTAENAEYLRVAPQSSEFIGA

melting point: 273 to 276 °C
IC50 (EGFRL858R): 5.58 ± 4.16 µM
IC50 (EGFRwt): > 10 µM
IC50 (EGFRL858R/T790M): > 10 µM
Compound: C/C=C/C(=O)Nc1ccc2ncc(NC(=O)Nc3ccccc3)nc2c1 [Compound 7i, (E)-N-(3-(3-phenylureido)quinoxalin-6-yl)but-2-enamide]

IC50 (EGFRL858R): 0.018 ± 0.003 µM
IC50 (EGFRwt): 0.025 ± 0.004 µM
IC50 (EGFRL858R/T790M): 1.68 ± 1.51 µM
inhibitory activity on EGFRL858R/T790M (in words) (EGFRL858R/T790M): weak inhibition
Compound: C=CC(=O)Nc1ccc2ncc(NC(=O)Nc3ccccc3)nc2c1 [Compound 7h, N-(3-(3-phenylureido)quinoxalin-6-yl)acrylamide]
inhibition at 10 µM ([1]; 10 μM, GXF 251L, CXF DiFi, LXFA PC9, LXFL 529L and LXFA NCI-H1975 cell lines, read-out: growth inhibition effect): 55 to 77%
tumor cell lines' growth inhibition / cytotoxic activity (in words) ([1]; single screening concentration of 10 μM): important cytotoxic activity
inhibition at 10 µM (MEXF 1737l): 15%
inhibition at 10 µM (CXF Colo205): 56%
inhibition at 10 µM (GXF 251L): 55%
inhibition at 10 µM (RXF 786-O): 80%
inhibition at 10 µM (SXF1301L): 89%
inhibition at 10 µM (CNXF A172): 86%
inhibition at 10 µM (LXFA 629L): 76%
inhibition at 10 µM (LIXF 575L): 40%
inhibition at 10 µM (LXFA PC9): 75%
inhibition at 10 µM (CXF RKO): 82%
inhibition at 10 µM (MAXF MCF7): 76%
inhibition at 10 µM (CXF SW620): 82%
inhibition at 10 µM (UXF 1138L): 91%
inhibition at 10 µM (LXFA NCI-H1975): 68%
inhibition at 10 µM (GXA MKN45): 8%
inhibition at 10 µM (PRXF DU145): 91%
inhibition at 10 µM (MEXF 1539L): 93%
inhibition at 10 µM (MAXF 401NL): 72%
inhibition at 10 µM (LXFL 529L): 74%
inhibition at 10 µM (LXFL H460): 33%
inhibition at 10 µM (PAXF 1657l): 89%
inhibition at 10 µM (BXF 1218L): 84%
inhibition at 10 µM (MAXF MDA231): 67%
inhibition at 10 µM (OVXF 899L): 87%
inhibition at 10 µM (MEXF 276L): 88%
inhibition at 10 µM (CXF DIFI): 77%
inhibition at 10 µM (BXF T24): 76%
inhibition at 10 µM (RXF 486L): 86%
inhibition at 10 µM (CXF HCT116): 92%
inhibition at 10 µM (PAXF 546L): 58%

melting point: 277 to 280 °C
IC50 (EGFRL858R): > 10 µM
IC50 (EGFRwt): > 10 µM
IC50 (EGFRL858R/T790M): > 10 µM
Compound: C/C=C/C(=O)Nc1ccc2ncc(NC(=O)Nc3ccc(Cl)c(C(F)(F)F)c3)nc2c1 [Compound 7b, (E)-N-(3-(3-(4-chloro-3-(trifluoromethyl)phenyl)ureido)quinoxalin-6-yl)but-2-enamide]

melting point: 268 to 271 °C
IC50 (EGFRL858R): 2.16 ± 1.62 µM
inhibitory activity on EGFRL858R (in words) (EGFRL858R; [2]): weak activity
IC50 (EGFRwt): 2.5 ± 0.735 µM
inhibitory activity on EGFRwt (in words) (EGFRwt; [2]): weak activity
IC50 (EGFRL858R/T790M): > 10 µM
inhibitory activity on EGFRL858R/T790M (in words) (EGFRL858R/T790M): no inhibitory activity
Compound: C=CC(=O)Nc1ccc2ncc(NC(=O)Nc3cccc(C(F)(F)F)c3)nc2c1 [Compound 7f, N-(3-(3-(3-(trifluoromethyl)phenyl)ureido)quinoxalin-6-yl)acrylamide]

Continued, compound first:

Compound: CN(C)C/C=C/C(=O)Nc1ccc2ncc(NC(=O)Nc3ccc(Cl)c(C(F)(F)F)c3)nc2c1 [Compound 7e, (E)-N-(3-(3-(4-chloro-3-(trifluoromethyl)phenyl)ureido)quinoxalin-6-yl)-4-(dimethylamino)but-2-enamide]
melting point: 217 to 220 °C
IC50 (EGFRL858R): > 10 µM
IC50 (EGFRwt): > 10 µM
IC50 (EGFRL858R/T790M): 6.14 ± 3.47 µM

Compound: O=C(CCl)Nc1ccc2ncc(NC(=O)Nc3ccc(Cl)c(C(F)(F)F)c3)nc2c1 [Compound 7c, 2-chloro-N-(3-(3-(4-chloro-3-(trifluoromethyl)phenyl)ureido)quinoxalin-6-yl)acetamide]
melting point: 253 to 255 °C
IC50 (EGFRL858R): 3.24 ± 1.26 µM
IC50 (EGFRwt): > 10 µM
IC50 (EGFRL858R/T790M): 2.71 ± 0.412 µM

Compound: C=CC(=O)Nc1ccc2ncc(NC(=O)Nc3ccc(F)c(Cl)c3)nc2c1 [Compound 7m, N-(3-(3-(3-chloro-4-fluorophenyl)ureido)quinoxalin-6-yl) acrylamide]
melting point: 259 to 262 °C
IC50 (EGFRL858R): > 10 µM
IC50 (EGFRwt): > 10 µM
IC50 (EGFRL858R/T790M): > 10 µM
